Data reported in BigSolDB 2.1.

CNC[C@H](O)c1cccc(O)c1.Cl
solubility (mole fraction)
Conditions | in 2-butoxyethanol | in 2-ethoxyethanol | in 2-methoxyethanol | in 2-propoxyethanol | in DMF | in NMP | in ethanol | in isopropanol | in methanol | in n-propanol
278.15 K | 0.00496 | 0.0254 | 0.114 | 0.00782 | 0.185 | 0.154 | 0.0138 | 0.00201 | 0.0715 | 0.00469
283.15 K | 0.00611 | 0.0305 | 0.122 | 0.01 | 0.198 | 0.161 | 0.0168 | 0.00251 | 0.0811 | 0.00586
288.15 K | 0.00811 | 0.0386 | 0.131 | 0.0132 | 0.21 | 0.169 | 0.0195 | 0.00335 | 0.09 | 0.00728
293.15 K | 0.0102 | 0.0465 | 0.14 | 0.0162 | 0.222 | 0.178 | 0.0233 | 0.00409 | 0.101 | 0.00905
298.15 K | 0.0126 | 0.0553 | 0.147 | 0.0195 | 0.236 | 0.186 | 0.0287 | 0.00492 | 0.111 | 0.0107
303.15 K | 0.016 | 0.0654 | 0.161 | 0.0244 | 0.251 | 0.198 | 0.034 | 0.0062 | 0.123 | 0.0133
308.15 K | 0.0195 | 0.0761 | 0.171 | 0.0304 | 0.265 | 0.208 | 0.0404 | 0.00768 | 0.136 | 0.0163
313.15 K | 0.0248 | 0.0903 | 0.183 | 0.0376 | 0.284 | 0.22 | 0.047 | 0.00931 | 0.15 | 0.0196
318.15 K | 0.0306 | 0.106 | 0.195 | 0.0462 | 0.299 | 0.232 | 0.0554 | 0.0113 | 0.165 | 0.0236
323.15 K | 0.0372 | 0.122 | 0.21 | 0.0566 | 0.315 | 0.246 | 0.0654 | 0.0138 | 0.182 | 0.0282
